We go through 1 compound from patent publication US20090258071A1, “COMPOSITIONS AND METHODS FOR PH TARGETED DRUG DELIVERY” (Labopharm, Inc., priority 2006, published 2009).

The nature of the series: Dissolution of SN-38 in phosphate buffer pH 6.8. It is filed as physicochemical. Particulars: FIG. 4. The procedure: The kinetics of drug release can be determined by measuring the amount of drug released into phosphate buffer pH 6.8 at 37° C. via conventional high pressure liquid chromatography (HPLC).
The experiment was repeated in a solution at a higher pH, specifically pH 6.8. Briefly, the dissolution of SN-38 was measured either as SN-38 alone or from SN-38 containing micelles prepared as described in Example 2. The freeze dried cake produced in Example 2 was added to phosphate buffer pH 6.8 and the drug concentration was measured under the same conditions as the experiment using aqueous HCl at pH 1.2.

Regarding `CCc1c2c(nc3ccc(O)cc13)-c1cc3c(c(=O)n1C2)COC(=O)[C@]3(O)CC` [SN-38, 7-ethyl-10-hydroxy-camptothecin], the dissolution behaviour entry was “rapidly precipitates from solution”.
